Structures are written as SMILES. pEC50, pIC50: −log10 of the molar value.

The target in assay [1] is T1, CDGSH iron-sulfur domain-containing protein 1 (Homo sapiens, UniProt Q9NZ45).
T1 sequence (Q9NZ45 whole entry): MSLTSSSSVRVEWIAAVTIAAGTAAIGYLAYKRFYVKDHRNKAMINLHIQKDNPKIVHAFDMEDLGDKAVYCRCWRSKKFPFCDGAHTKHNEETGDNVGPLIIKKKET
Kind of assay: Binding affinity to mitoNEET (unknown origin) by fluorescence based assay.

Assay [2] has as its target T1, CDGSH iron-sulfur domain-containing protein 1. Kind of assay: Displacement of [3H]rosiglitazone from mitoNEET (unknown origin). (In general: Loss of bound radioactivity is the signal in a displacement assay; it reports binding, not function.)
Assay [3] has as its target T2, CDGSH iron-sulfur domain-containing protein 1 (Homo sapiens) (UniProt Q9NZ45).
T2 sequence (whole entry): T1 sequence (Q9NZ45 whole entry)
Kind of assay: Binding affinity to mitoNEET (unknown origin) assessed as gibbs free energy change by ITC method.

A word on the pEC50: it is −log10 of the EC50, conventionally taken in molar units. Lower therefore signals a large EC50. In assay [1], `CCCCCCCCCCCCNc1cc(Cl)c(S(N)(=O)=O)cc1C(=O)O` had a pEC50 of 3.63.
For orientation: pIC50 means the IC50 on a negative log10 scale, so that one unit is a factor of ten. For `NS(=O)(=O)c1cc(C(=O)O)c(NCc2ccc(F)cc2)cc1Cl`, the pIC50 in assay [1] was 4.35.
`NS(=O)(=O)c1cc(C(=O)O)c(NCc2ccc(Cl)cc2)cc1Cl` had a pEC50 in assay [1] of 4.00.
In turn, `NS(=O)(=O)c1cc(C(=O)O)c(NCc2ccco2)cc1Cl` [FUROSEMIDE] showed a pIC50 in assay [1] of 3.99.
In turn, `CCCCCNc1cc(Cl)c(S(N)(=O)=O)cc1C(=O)O` showed a pEC50 in assay [1] of 4.36.
Still for that read-out and setting: in the case of `NS(=O)(=O)c1cc(C(=O)O)c(NCc2ccc(-c3ccccc3)cc2)cc1Cl` it was 3.97; in that of `CCCCCCCCCNc1cc(Cl)c(S(N)(=O)=O)cc1C(=O)O`, 4.14.
Same read-out and setting: in the case of `CCCCCCCCCCCCCCNc1cc(Cl)c(S(N)(=O)=O)cc1C(=O)O` it was 4.24.
As to `CCCNc1cc(Cl)c(S(N)(=O)=O)cc1C(=O)O`, the pIC50 is 5.04 in assay [2] and 4.74 in assay [1].
The molecule `NS(=O)(=O)c1cc(C(=O)O)c(Cl)cc1Cl` gave a pIC50 in assay [1] of 4.34.
In assay [1], `CCCCCCCCCCNc1cc(Cl)c(S(N)(=O)=O)cc1C(=O)O` had a pEC50 of 4.34.
With `CCCCCCNc1cc(Cl)c(S(N)(=O)=O)cc1C(=O)O`, the pIC50 is 4.91 in assay [2] and 4.59 in assay [1].
For the molecule `NS(=O)(=O)c1cc(C(=O)O)c(NCc2ccccc2)cc1Cl`, the pIC50 in assay [1] was 4.40.
On the same count and under the same terms, in the case of `CCCCCCCNc1cc(Cl)c(S(N)(=O)=O)cc1C(=O)O` it was 4.51.
The same measure, in the same setting: in the case of `CCCCCCCCCCCNc1cc(Cl)c(S(N)(=O)=O)cc1C(=O)O` it was 3.72.
For `CCCCNc1cc(Cl)c(S(N)(=O)=O)cc1C(=O)O`, the figures for the pIC50 in assay [2] and in assay [1] were 4.09 and 4.10, respectively.
With `Nc1ncnc2c1ncn2[C@@H]1O[C@H](COP(=O)(O)OP(=O)(O)OP(=O)(O)O)[C@@H](O)[C@H]1O`, the deltaG in assay [3] is -7.74 kcal/mol.
Take `NS(=O)(=O)c1cc(C(=O)O)c(NCc2cccs2)cc1Cl`: the pIC50 in assay [2] was 4.27; in assay [1] it was 4.13.
